# Assay results reported in US20030166605A1, “Method of minimizing damage to heart tissue during cardiac surgery and cardiac transplantation” (priority 1999, published 2003).
# Where two headings read alike, the source gives them in different places.
# Assay type: in vivo
# Conditions: for Cardiac Index, slope of percentage change from baseline (Slope ± SE) / Pulmonary capillary wedge pressure, slope of percentage change from baseline (Slope ± SE) / Systolic Blood Pressure, slope of percentage change from baseline (Slope ± SE): per hour; for Cardiac Index, slope of percentage change from baseline (Slope ± SE) / Pulmonary capillary wedge pressure, slope of percentage change from baseline (Slope ± SE) / Systolic Blood Pressure, slope of percentage change from baseline (Slope ± SE) / Heart Rate, slope of percentage change from baseline (Slope ± SE): first 24 postoperative hours; for Heart Rate, slope of percentage change from baseline (Slope ± SE): percentage change per hour; for absolute mean heart rate: 24 hours after surgery; for patients who received dopamine / use of any inotropic agent: first 7 days after surgery; for patients who received dopamine: placebo 77%; for use of any inotropic agent: placebo 79%; for insertions of an intraaortic balloon pump for low cardiac output: nine in placebo group; for death rate: placebo 6.0%
# Experimental: A double blind, placebo controlled trial was performed on 253 patients randomized into three groups. The objective of the study was to evaluate the safety, tolerance and efficacy of adenosine in patients undergoing coronary artery bypass surgery. Inadequate myocardial protection in patients undergoing coronary artery bypass surgery contributes to overall hospital mortality and morbidity.
# The treatments included the intraoperative administration of cold blood cardioplegia, blood cardioplegia including 500 μM adenosine (“low dose adenosine”), and blood cardioplegia including 200 mM adenosine (“high dose adenosine”). Patients receiving adenosine were also given an infusion of adenosine (200 μg/kg/min) 10 minutes before and 15 minutes after removal of the aortic crossclamp. Invasive and non-invasive measurements of ventricular performance were obtained before, during and after surgery.
# Exclusion criteria included known or suspected pregnancy, known hypersensitivity to adenosine, and enrollment in another clinical trial study.
# Study Design: 253 patients were split into three groups. Group A patients (n=84) received placebo and were given standard hyperkalemic cold blood cardioplegia. Group B patients (low dose adenosine, n=84) were given hyperkalemic cold blood cardioplegia containing 500 μM adenosine. Group C patients (high dose adenosine) were given hyperkalemic cold blood cardioplegia containing 200 mM adenosine. The patients who received adenosine cardioplegia were also exposed to a 10 minute infusion of adenosine pre-treatment (200 μg/kg/min) immediately before application of the aortic crossclamp and a 15 minute infusion of adenosine immediately after removing the crossclamp.
# Before surgery, patients were evaluated for the degree of ischemic disease by history, echocardiography, and cardiac catheterization. In the operating room, hemodynamic measurements were obtained and recorded just before initiating cardiopulmonary bypass and 15, 30, 45 and 60 minutes and 2, 3, 4, 5, and 8 hours after cessation of bypass. In patients requiring intravenous inotropic medications in the postoperative period, hemodynamic monitoring was continued with measurements of specified parameters every 2 hours for 24 hours, and then every 4 hours until the inotropic medications were discontinued or it was ascertained that monitoring was no longer helpful in the management of the patient.
# Invasive hemodynamic measurements included systolic blood pressure, heart rate, central venous pressure, pulmonary artery pressure, pulmonary capillary wedge pressure and cardiac output. The cardiac index, stroke volume, systemic vascular resistance, pulmonary vascular resistance, right ventricular stroke work index and left ventricular stroke index were derived. The cardiac output measurements were obtained using a thermodilution catheter and computer. Noninvasive heart function studies included 12-lead electrocardiograms, preoperative stress dobutamine echocardiography, and pre- and post-operative transthoracic and transesophageal echocardiograms. Patients were monitored from the time of enrollment to follow-up 4 to 6 weeks after discharge from the hospital. This included routine blood work and chemistries, arterial blood gases, pH, creatine kinase (CK)-MB concentrations, and pulse oximetry.
# The primary endpoints of the study were reduction in total dopamine use during the first 7 days, reduction in all inotropic support required during the first 7 days, reduction in the use of dopamine to less than 5 μg/kg/min.
# There were 21 secondary endpoints, including improvement in postoperative hemodynamics, reduction in the use of the intraaortic balloon pump, reduction in the incidence of myocardial infarction, and decrease in the mortality rate.
# All patients who received study treatment and underwent coronary bypass surgery were included in the intent-to-treat analysis. […]
# [1] = Group B, low dose adenosine (500 μM cardioplegia + infusion)
# [2] = Group C, high dose adenosine (200 mM cardioplegia + infusion)
structure (smiles),measurement,setting,value
Nc1ncnc2c1ncn2[C@@H]1O[C@H](CO)[C@@H](O)[C@H]1O [adenosine],"Cardiac Index, slope of percentage change from baseline (Slope ± SE)",[1],1.130 ± 0.105
same,"Pulmonary capillary wedge pressure, slope of percentage change from baseline (Slope ± SE)",[1],0.688 ± 0.249
same,"Systolic Blood Pressure, slope of percentage change from baseline (Slope ± SE)",[1],0.387 ± 0.060
same,"Heart Rate, slope of percentage change from baseline (Slope ± SE)","Group B, low dose adenosine (500 μM in cold blood cardioplegia + 200 μg/kg/min infusion)",0.510 ± 0.078
same,"Cardiac Index, slope of percentage change from baseline (Slope ± SE)",[2],1.468 ± 0.112
same,"Pulmonary capillary wedge pressure, slope of percentage change from baseline (Slope ± SE)",[2],−0.869 ± 0.288
same,"Systolic Blood Pressure, slope of percentage change from baseline (Slope ± SE)",[2],0.440 ± 0.063
same,"Heart Rate, slope of percentage change from baseline (Slope ± SE)","Group C, high dose adenosine (200 mM in cold blood cardioplegia + 200 μg/kg/min infusion)",0.820 ± 0.081
same,high-dose dopamine support (>5 μg/kg/min),high dose adenosine group versus placebo,trend toward a decrease
same,absolute mean heart rate,high dose adenosine group,96.8±5.4 beats per minute
same,patients who received dopamine,high dose adenosine group,79%
same,use of any inotropic agent,high dose adenosine group,80%
same,insertions of an intraaortic balloon pump for low cardiac output,high dose adenosine group,five
same,death rate,high dose adenosine group,1.2%
same,postoperative MI rate,"high dose adenosine group, placebo 9.5%",1.2%
same,"percentage of patients experiencing one of the composite adverse events (high dose dopamine, epinephrine use, intraaortic balloon pump, MI, death)","high dose adenosine versus placebo, p=0.006",lower
same,safety and tolerance,"human, in vivo",safe and well tolerated
same,absolute mean heart rate,low dose adenosine group,90.7±3.6 beats per minute
same,patients who received dopamine,low dose adenosine group,71%
same,use of any inotropic agent,low dose adenosine group,73%
same,insertions of an intraaortic balloon pump for low cardiac output,low dose adenosine group,two
same,death rate,low dose adenosine group,3.6%
